SMILES strings stand for the structures.

Assay [1] addresses T1, human D2S dopamine (hD2S-DA) receptors (Homo sapiens, UniProt P14416).
T1 construct: purchased Receptor Biology, Inc. (Beltsville, Md.); host or cells: A9 L cells
Put plainly: Competition radioligand binding, hD2S dopamine. The note with it: [3H]Spiperone; membranes of A9 L cells; read-out: Ki D2.

Assay [2] has as its target T2, human 5-HT6 (h5-HT6) receptors (Homo sapiens, UniProt P50406).
T2 construct: purchased Receptor Biology, Inc. (Beltsville, Md.); host or cells: HEK-293 cells
Put plainly: Competition radioligand binding, h5-HT6. Conditions: [3H]LSD; membranes of HEK-293 cells; read-out: Ki 5-HT6.

Assay [3] addresses T3, human 5-HT7B (h5-HT7b) receptors (Homo sapiens, UniProt P34969).
T3 construct: expressed in transfected cells
The experiment in a line: Competition radioligand binding, h5-HT7b. The note with it: [3H]5-CT; membranes of HEK 293 cells; read-out: Ki 5-HT7. The text has this:
The compounds of the invention interact with 5-HT receptors and show selectivity for 5-HT receptors. The 5-HT receptor binding properties of the compounds are identified by competitive radioligand binding assays wherein membranes prepared from transfected cells expressing the 5-HT receptor subtype of interest. “Binding constants” refers herein to Ki values measured by inhibition of the binding of radiolabelled ligands that are selective for the 5-HT receptor type being studied. For 5-HT7 receptors, Ki values are determined by measuring the inhibition of 5-carboxamidotryptamine (5-CT) binding, wherein 5-HT7 receptors were incubated with the radiolabelled high affinity ligand, 5-carboxamidotryptamine ([^3H]5-CT), in the presence and absence of the compounds of the invention, at varying concentrations. The compounds of the invention have high binding affinity for serotonin receptors as measured by dissociation constant Ki. […] “Selectivity” for receptor type, in the context of this invention, refers to the ratio of binding constants for the two receptor types being compared. […] The compounds of the present invention preferably show selectivity for 5-HT7 receptors over other serotonin receptor subtypes of greater than about 100. The compounds of the present invention also preferably show selectivity for 5-HT7 receptors over other receptor types, such as dopamine D2, of greater than about 100.
(§1) Cells and Membrane Preparation: HEK 293 cells stably expressing human 5-HT7B (h5-HT7b) receptors were grown in Dulbecco's Modified Eagle's Medium (DMEM; Gibco) without sodium pyruvate and containing 4.5 g/L glucose, L-glutamine/penicillin-streptomycin (Gemini), 10% fetal bovine serum and 250 mg/l of the antibiotic, G418 (Geneticin) as previously described (Jasper, J. R., Kosaka, A., To, Z. P., Chang, D. J. and Eglen, R. M. (1997) Cloning, expression and pharmacology of a truncated splice variant of the human 5-ht7 receptor (h5-ht7b). Br. J. Pharmacol. 122(1):126-132.). Cell pellets were homogenized in approximately 50 mL of homogenization buffer (buffer A) containing: 50 mM Tris (pH 7.4), 2 mM EGTA, 0.32 M sucrose, 10 μM PMSF, 1 μg/mL leupeptin, 5 μg/mL Pepstatin A, and 5 μg/mL aprotinin using an UltraTurax homogenizer (Tekmar Company, Cincinnati, Ohio) at 80% maximum setting three times for 10 sec. Cell pellets were centrifuged at 4° C. at 1,500×g for 10 min in a Beckman GS-6R centrifuge. Pellets were resuspended in buffer A, homogenized and centrifuged as described above. Pooled supernatants were transferred to centrifuge bottles and centrifuged at 4° C. at 20,000×g for 30 min in a Beckman J2-HS centrifuge. Cell pellets were resuspended in buffer A and were centrifuged at 4° C. at 20,000×g for 30 min. Cell pellets were resuspended in buffer A and stored at −70° C. in aliquots of 2.5 mg/mL total membrane protein. Total membrane protein was assessed utilizing a BCA kit (Pierce; Rockford, Ill.). Membranes containing human 5-HT1a or 5HT2a receptors expressed in CHO K1 cells were prepared as described above.
Radioligand Binding Assays: For 5-HT7 saturation binding experiments, HEK-293 cell membranes expressing h5-HT7 receptors (5-10 μg membrane protein/well) were incubated in duplicate with [^3H]5-CT (approximately 0.2 nM) in binding assay buffer containing: 50 mM HEPES (pH 7.4), 0.5 mM EDTA, 10 mM MgCl2, 10 μM pargyline to inhibit monoamine oxidase activity, and 0.1% sodium ascorbate, in a final volume of 200 μL in 96-well polypropylene plates for 2 hours at 37° C. Nonspecific binding was determined by incubating membranes with 1 μM 5-HT. All radioligand binding assays were stopped by rapid filtration onto 96-well GF/C filter plates (Packard) soaked in 0.1% polyethylenimine. Filters were washed three times with ice-cold phosphate-buffered saline (PBS) wash buffer containing 50 mM NaPO4 (pH 7.4), 0.9% NaCl, 2 mM MgCl2 and 0.02% NaN3. The filters were then counted using liquid scintillation in a Packard Topcount scintillation counter. […]

Assay [4] concerns the target T4, human 5-HT1a receptors (Homo sapiens, UniProt P08908).
T4 construct: expressed in transfected cells; host or cells: CHO K1 cells
T4 sequence (P08908 1-422): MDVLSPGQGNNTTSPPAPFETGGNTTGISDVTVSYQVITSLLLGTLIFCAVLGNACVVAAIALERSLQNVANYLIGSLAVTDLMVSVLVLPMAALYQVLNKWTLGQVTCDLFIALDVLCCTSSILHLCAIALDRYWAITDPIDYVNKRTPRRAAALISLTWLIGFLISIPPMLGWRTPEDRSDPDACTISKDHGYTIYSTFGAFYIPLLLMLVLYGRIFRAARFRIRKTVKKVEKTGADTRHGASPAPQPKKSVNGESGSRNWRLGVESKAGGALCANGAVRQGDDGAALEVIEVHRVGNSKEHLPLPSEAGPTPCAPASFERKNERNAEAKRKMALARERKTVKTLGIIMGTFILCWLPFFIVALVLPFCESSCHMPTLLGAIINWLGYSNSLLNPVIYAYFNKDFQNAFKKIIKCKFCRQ
Put plainly: Competition radioligand binding, h5-HT1a. The note with it: [3H]5-CT; membranes of CHO K1 cells; read-out: Ki 5-HT1A. How it is done: as §1
(§2) Radioligand Binding Assays: For 5-HT7 saturation binding experiments, HEK-293 cell membranes expressing h5-HT7 receptors (5-10 μg membrane protein/well) were incubated in duplicate with [^3H]5-CT (approximately 0.2 nM) in binding assay buffer containing: 50 mM HEPES (pH 7.4), 0.5 mM EDTA, 10 mM MgCl2, 10 μM pargyline to inhibit monoamine oxidase activity, and 0.1% sodium ascorbate, in a final volume of 200 μL in 96-well polypropylene plates for 2 hours at 37° C. Nonspecific binding was determined by incubating membranes with 1 μM 5-HT. All radioligand binding assays were stopped by rapid filtration onto 96-well GF/C filter plates (Packard) soaked in 0.1% polyethylenimine. Filters were washed three times with ice-cold phosphate-buffered saline (PBS) wash buffer containing 50 mM NaPO4 (pH 7.4), 0.9% NaCl, 2 mM MgCl2 and 0.02% NaN3. The filters were then counted using liquid scintillation in a Packard Topcount scintillation counter.
(§3) Data Analysis: Radioligand binding experiments were analyzed with Prism™ (Graphpad, San Diego, Calif.), a computer graphics and statistics program. IC50 values and Hill slopes for compounds were generated by nonlinear regression using Prism™. Values for Ki calculated from IC50 values by the Cheng and Prussoff equation (Cheng, Y. and Prusoff, W. H., (1973), “Relationship between the inhibition constant (Ki) and the concentration of inhibitor which causes 50 per cent inhibition (I50) of an enzymatic reaction.” Biochemical Pharmacol. 22:3099-3108).

Assay [5] deals with T5, human 5HT2a receptors (Homo sapiens, UniProt P28223).
T5 construct: expressed in transfected cells; host or cells: CHO K1 cells
Put plainly: Competition radioligand binding, 5-HT2A. Conditions: [3H]Ketanserin; membranes of CHO K1 cells; read-out: Ki 5-HT2A. How it is done: as §1, §2, §3

T5 sequence (P28223 whole entry): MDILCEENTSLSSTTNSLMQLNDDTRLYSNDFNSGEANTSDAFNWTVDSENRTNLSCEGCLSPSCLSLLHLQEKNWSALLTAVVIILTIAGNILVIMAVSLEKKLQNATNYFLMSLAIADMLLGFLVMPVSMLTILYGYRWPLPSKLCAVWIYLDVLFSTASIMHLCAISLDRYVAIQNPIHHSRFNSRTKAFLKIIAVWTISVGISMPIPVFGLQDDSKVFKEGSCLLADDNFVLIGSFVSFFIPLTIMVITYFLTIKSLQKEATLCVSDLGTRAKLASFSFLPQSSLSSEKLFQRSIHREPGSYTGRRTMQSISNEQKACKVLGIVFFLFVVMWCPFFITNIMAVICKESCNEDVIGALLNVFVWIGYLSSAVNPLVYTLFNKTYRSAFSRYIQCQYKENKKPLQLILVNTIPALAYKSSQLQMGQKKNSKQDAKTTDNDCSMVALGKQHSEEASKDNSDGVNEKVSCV
T2 sequence (P50406 whole entry): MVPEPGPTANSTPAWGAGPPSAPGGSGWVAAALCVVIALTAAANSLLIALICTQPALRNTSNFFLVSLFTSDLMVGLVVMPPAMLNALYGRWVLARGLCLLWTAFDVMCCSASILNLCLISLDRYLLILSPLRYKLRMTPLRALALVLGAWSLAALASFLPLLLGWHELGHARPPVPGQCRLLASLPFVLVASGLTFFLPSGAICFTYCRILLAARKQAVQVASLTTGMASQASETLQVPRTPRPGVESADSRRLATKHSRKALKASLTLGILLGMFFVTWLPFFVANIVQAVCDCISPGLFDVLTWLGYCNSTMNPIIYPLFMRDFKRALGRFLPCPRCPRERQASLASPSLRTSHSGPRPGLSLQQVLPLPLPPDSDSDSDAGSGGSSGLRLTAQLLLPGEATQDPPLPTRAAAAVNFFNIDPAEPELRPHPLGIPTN
T1 sequence (P14416 1-414 isoform P14416-2): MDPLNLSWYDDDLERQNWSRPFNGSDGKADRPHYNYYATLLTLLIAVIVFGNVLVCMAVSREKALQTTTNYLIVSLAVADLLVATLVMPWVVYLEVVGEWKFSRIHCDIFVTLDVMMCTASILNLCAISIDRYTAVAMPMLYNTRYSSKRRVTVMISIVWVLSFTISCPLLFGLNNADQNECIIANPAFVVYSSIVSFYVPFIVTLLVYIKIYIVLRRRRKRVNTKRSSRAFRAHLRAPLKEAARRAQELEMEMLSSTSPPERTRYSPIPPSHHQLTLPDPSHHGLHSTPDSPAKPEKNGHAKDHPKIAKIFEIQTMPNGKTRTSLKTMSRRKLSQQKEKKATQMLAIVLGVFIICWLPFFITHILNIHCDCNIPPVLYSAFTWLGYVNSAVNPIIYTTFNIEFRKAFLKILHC
T3 sequence (P34969 1-432 limits assumed): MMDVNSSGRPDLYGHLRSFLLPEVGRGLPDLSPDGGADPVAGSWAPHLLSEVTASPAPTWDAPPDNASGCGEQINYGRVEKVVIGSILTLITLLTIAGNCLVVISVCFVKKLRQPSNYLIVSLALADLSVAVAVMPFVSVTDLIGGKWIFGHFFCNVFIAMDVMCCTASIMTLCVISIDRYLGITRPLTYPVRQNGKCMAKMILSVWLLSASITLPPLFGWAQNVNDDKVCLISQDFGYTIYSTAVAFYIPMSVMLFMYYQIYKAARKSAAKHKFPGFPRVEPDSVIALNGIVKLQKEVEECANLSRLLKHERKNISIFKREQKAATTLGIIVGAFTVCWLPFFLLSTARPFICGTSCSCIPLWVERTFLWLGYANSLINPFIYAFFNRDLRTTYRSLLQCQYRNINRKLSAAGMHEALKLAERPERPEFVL

As for `CC(=O)Nc1ccc(NC(=O)NC(=N)NCc2cccc3ccccc23)cc1` [Example 1, N-(4-{[({Imino[(1-naphthylmethyl)amino]methyl}amino)carbonyl]amino}phenyl)acetamide], the Ki (as a rule, a measure of affinity in units of concentration, obtained from inhibition or displacement) was determined as 1770 nM in assay [1]; 2500 nM in assay [2]; 13 nM in assay [3]; 220 nM in assay [4]; 1 nM in assay [5].
Consider `CC(=O)NC(=N)NCc1cccc2ccccc12` [Example 3, N-Acetyl-N′-(1-naphthylmethyl)guanidine], for which the inhibitory constant (Ki) in assay [1] was more than 2500 nM; in assay [2] it was 2720 nM; in assay [3] it was 100 nM; in assay [4], 1530 nM; in assay [5] it was 8 nM.
Take `COc1ccccc1CN1CCN(C(=O)NC(=N)NCc2cccc3ccccc23)CC1` [Example 5, N-{[4-(2-Methoxybenzyl)-1-piperazinyl]carbonyl}-N′-(1-naphthylmethyl)guanidine]: the Ki in assay [1] was 2010 nM; in assay [2], 1960 nM; in assay [3] it was 26 nM; in assay [4] it was 2390 nM; in assay [5], 46 nM.
In the same order, the values of `N=C(NCc1cccc2ccccc12)NC(=O)NC1CCN(Cc2ccccc2)CC1` [Example 6, 1-Benzyl-4-{[({imino[(1-naphthylmethyl)amino]methyl}amino)carbonyl]amino}piperidine] are 1050 nM, 8630 nM, 68 nM, 770 nM and 13 nM.
On to `N=C(NCc1cccc2ccccc12)NC(=O)N1CCN(Cc2ccccc2)CC1` [Example 7, N-[(4-Benzyl-1-piperazinyl)carbonyl]-N′-(1-naphthylmethyl)guanidine], for which the Ki in assay [1] was 770 nM; in assay [2], more than 10000 nM; in assay [3], 1.4 nM; in assay [4], 1690 nM; in assay [5], 43 nM.
In the same order, the values of `N=C(NCc1cccc2ccccc12)NC(=O)N1CCC(C(N)=O)CC1` [Example 8, 1-[({imino[(1-naphthylmethyl)amino]methyl}amino)carbonyl]-4-piperidinecarboxamide] are more than 2500 nM, more than 10000 nM, 12 nM, more than 4000 nM and 40 nM.
With `N=C(NCc1cccc2ccccc12)NC(=O)N[C@H](CO)c1ccccc1` [Example 15, 1-({[[({[(1S)-2-Hydroxy-1-phenylethyl]amino}carbonyl)amino](imino)methyl]amino}methyl)naphthalene], the Ki worked out at 290 nM in assay [1], 170 nM in assay [2], 2.6 nM in assay [3] and 0.4 nM in assay [5].
Taken in the same sequence, the figures for `N=C(NCc1cccc2ccccc12)NC(=O)NCc1cccnc1` [Example 18, 3-({[({Imino[(1-naphthylmethyl)amino]methyl}amino)carbonyl]amino}methyl)pyridine] were 1030 nM, 350 nM, 17 nM and 0.43 nM.
As for `COc1ccccc1N1CCN(C(=O)NC(=N)NCc2cccc3ccccc23)CC1` [Example 21, N-{[4-(2-Methoxyphenyl)-1-piperazinyl]carbonyl}-N′-(1-naphthylmethyl)guanidine], the Ki in assay [1] is 900 nM; in assay [2], more than 10000 nM; in assay [3] it was 6 nM; in assay [4], 520 nM; in assay [5] it was 150 nM.
Taken in the same sequence, the figures for `N=C(NCc1cccc2ccccc12)NC(=O)N[C@H]1C[C@@H]2CC[C@H]1C2` [Example 23, 1-({[({[(1S,2S,4R)Bicyclo[2.2.1]hept-2-ylamino]carbonyl}amino) (imino)methyl]amino}methyl)naphthalene] were 280 nM, 1930 nM, 9.7 nM, 220 nM and 4 nM.
In the case of `N=C(NCCc1ccccc1)NC(=O)N1CCN(Cc2ccccc2)CC1` [Example 61, N-[(4-Benzyl-1-piperazinyl)carbonyl]-N′-phenethylguanidine], the inhibition constant Ki was more than 2500 nM in assay [1], 490 nM in assay [3], 930 nM in assay [4] and 1800 nM in assay [5].
`N=C(NCc1cccc2ccccc12)NC(=O)NCC1CCN(Cc2cccc3ccccc23)CC1` [Example 69, 4-({[({Imino[(1-naphthylmethyl)amino]methyl}amino)carbonyl]amino}methyl)-1-(1-naphthylmethyl)piperidine]: the Ki worked out at 720 nM in assay [1], 27 nM in assay [3] and 11 nM in assay [5].
As for `CCOc1ccccc1CNC(=N)NC(=O)NC` [Example 84, 1-Ethoxy-2-{[(imino{[(methylamino)carbonyl]amino}methyl)amino]methyl}benzene], the Ki in assay [1] is more than 2500 nM; in assay [2], 8660 nM; in assay [4], more than 4000 nM; in assay [5], 400 nM.

The record behind these values is patent US20040044037A1, “Amidino-urea serotonin receptor ligands and compositions, their pharmaceutical uses, and methods for their snythesis” (priority 2003, published 2004).
